The data set relates to mouse cortical neuron cultures.

Like-named read-outs stand apart in the source and are kept apart here.

The record followed here is publication PMC4821887, “Identification of chemicals that mimic transcriptional changes associated with autism, brain aging and neurodegeneration” (Nature Communications, 2016).

Consider `CN(C)NC(=O)CCC(=O)O` [Daminozide], for which the “% Dead cells (vehicle subtracted)” value is -0.7321%.
Same read-out and setting: the figure for `N#Cc1c[nH]cc1-c1cccc2c1OC(F)(F)O2` [Fludioxonil] is -2.856%; for `CCC(C)OC(=O)N1CCCCC1CCO` (centres unmarked) [Icaridin] it is 2.044%.
As to `CCc1cnc(C2=NC(C)(C(C)C)C(=O)N2)c(C(=O)O)c1` (centres unmarked) [Imazethapyr], for the setting “mouse, 24 h, 10 µM”, the “% Dead cells (vehicle subtracted)” value came to 4.704%.
With `CCOc1cc(Oc2ccc(C(F)(F)F)cc2Cl)ccc1[N+](=O)[O-]` [Oxyfluorfen], the “% Dead cells (vehicle subtracted)” value is -3.765%.
In the case of `CCC/C(=N\OCC)C1=C(O)CC(CC(C)SCC)CC1=O` (centres unmarked) [Sethoxydim], the “% Dead cells (vehicle subtracted)” value is -0.798%.
For the molecule `CCCCOCN(C(=O)CCl)c1c(CC)cccc1CC` [Butachlor], the “% Dead cells (vehicle subtracted)” value (mouse, 24 h, 10 µM) was 0.2625%.
Regarding `CC(C)=CC1C(C(=O)OCc2coc(Cc3ccccc3)c2)C1(C)C` (centres unmarked) [Resmethrin], the “% Dead cells (vehicle subtracted)” value is listed as 1.827%.
On to `O=C(O)C1(C(=O)Nc2ccc(Cl)cc2Cl)CC1` [Cyclanilide], for which the “% Dead cells (vehicle subtracted)” value came out at 0.6928%.
Still for that read-out and setting: the figure for `CCCC1COC(Cn2cncn2)(c2ccc(Cl)cc2Cl)O1` (centres unmarked) [Propiconazole] is 0.7517%.
Take `C=CC1(C)OC(=O)N(c2cc(Cl)cc(Cl)c2)C1=O` (centres unmarked) [Vinclozolin]: the “% Dead cells (vehicle subtracted)” value (mouse, 24 h, 10 µM) is recorded as -1.854%.
Regarding `N#C/N=C1\SCCN1Cc1ccc(Cl)nc1` [Thiacloprid], the “% Dead cells (vehicle subtracted)” value is listed as 2.238%.
As to `CC(C)(c1ccc(O)cc1)c1ccc(O)cc1.CC(C)(c1ccc(O)cc1)c1ccc(O)cc1`, the “% Dead cells (vehicle subtracted)” value worked out at 0.9627%.
The same measure, in the same setting: the figure for `COCC(=O)N(c1c(C)cccc1C)C(C)C(=O)OC` (centres unmarked) [Metalaxyl] is 0.5361%.
On to `c1ccc(Nc2ccccc2)cc1` [Diphenylamine], for which, where the note is “mouse, 24 h, 10 µM”, the “% Dead cells (vehicle subtracted)” value stood at 2.557%.
`CNC(=O)Oc1cccc2c1OC(C)(C)O2` [Bendiocarb]: the “% Dead cells (vehicle subtracted)” value turned out to be 9.256%.
Regarding `CNC(=O)N(C)c1nnc(C(C)(C)C)s1` [Tebuthiuron], the “% Dead cells (vehicle subtracted)” value was -0.9604%.
With `COP(=O)(OC)SCn1c(=O)oc2cc(Cl)cnc21` [Azamethiphos], the “% Dead cells (vehicle subtracted)” value was -0.5762%.
The same measure, in the same setting: the figure for `CCOP(=S)(OCC)SCCSCC` [Disulfoton] is 2.557%; for `CN(C)C(=S)SSC(=S)N(C)C` [Thiram] it is 0.7821%.
Take `CC(C)OC(=O)Nc1cccc(Cl)c1` [Chlorpropham]: the “% Dead cells (vehicle subtracted)” value (mouse, 24 h, 10 µM) is given as -1.179%.
On to `COC(=O)c1ccc(CNS(C)(=O)=O)cc1S(=O)(=O)NC(=O)Nc1nc(OC)cc(OC)n1` [Mesosulfuron methyl], for which the “% Dead cells (vehicle subtracted)” value is -0.4756%.
Same read-out and setting: the figure for `CSC(=O)c1cccc2nnsc12` is -0.1497%; for `COC(=O)c1c(C(F)F)nc(C(F)(F)F)c(C2=NCCS2)c1CC(C)C` [Thiazopyr] it is 1.196%; for `CCN(CC)c1nc(C)cc(OP(=S)(OC)OC)n1` [Pirimiphos-methyl] it is -0.1826%.
On the same count and under the same terms, the result for `CCCOc1nn(C(=O)[N-]S(=O)(=O)c2ccccc2C(=O)OC)c(=O)n1C.[Na+]` [Propoxycarbazone-sodium] reads -1.764%; that for `CC(Oc1cccc(Cl)c1)C(=O)O` (centres unmarked) [Cloprop], -3.007%; that for `CCOC(=O)COc1cc(-c2nn(C)c(OC(F)F)c2Cl)c(F)cc1Cl` [Pyraflufen-ethyl], -2.144%.
On the same count and under the same terms, the figure for `CCOC(=O)C(Cl)Cc1cc(-n2nc(C)n(C(F)F)c2=O)c(F)cc1Cl` (centres unmarked) [Carfentrazone-ethyl] is 9.785%; for `CC1(C)C(C=C(Cl)Cl)C1C(=O)OCc1cccc(Oc2ccccc2)c1` (centres unmarked) [Permethrin] it is -0.7739%.
In the case of Milbemectin, the “% Dead cells (vehicle subtracted)” value is 1.383%.
For the molecule `CCCCOC(=O)C(C)Oc1ccc(Oc2ccc(C(F)(F)F)cn2)cc1` (centres unmarked) [Fluazifop-butyl], the “% Dead cells (vehicle subtracted)” value runs as follows: (mouse, 24 h, 0.01 µM) 0.215%; (mouse, 24 h, 0.1 µM) -0.165%; (mouse, 24 h, 1 µM) 23.9839%; (mouse, 24 h, 10 µM) 7.788%.
In the case of `CCCCCCC(C)OC(=O)COc1nc(F)c(Cl)c(N)c1Cl` (centres unmarked) [Fluroxypyr-meptyl], the “% Dead cells (vehicle subtracted)” value is reported as -1.2099%.
Regarding `CCCCC(CC)COC(=O)c1ccccc1C(=O)O` (centres unmarked), where the note is “10 µM chemical, mouse cortical neuron cultures”, the “% Dead cells (vehicle subtracted)” value is -0.8176%.
As for `Cc1ccccc1CO[C@@H]1C[C@@]2(C(C)C)CC[C@]1(C)O2` (racemic) [Cinmethylin], the “% Dead cells (vehicle subtracted)” value was -0.5547%.
Take `CC(C)(C)[C@@H](O)[C@@H](Cc1ccc(Cl)cc1)n1cncn1` (racemic) [Paclobutrazol]: the “% Dead cells (vehicle subtracted)” value (mouse, 24 h, 10 µM) was -2.562%.
Consider `CCOC(=O)COc1cc(-n2ncc(C(F)(F)F)c(C)c2=O)c(F)cc1Cl` [Flufenpyr-ethyl], for which the “% Dead cells (vehicle subtracted)” value is recorded as -1.575%.
The same measure, in the same setting: the figure for `CCCOC(=O)c1ccc(C(=O)OCCC)nc1` is -2.999%; for `OC(c1ccc(Cl)cc1)(c1cncnc1)c1ccccc1Cl` (centres unmarked) [Fenarimol] it is -1.829%; for `CN1COCN(Cc2cnc(Cl)s2)/C1=N\[N+](=O)[O-]` [Thiamethoxam] it is 1.407%.
Still for that read-out and setting: the result for `CCOc1cc(C(C)(C)C)ccc1C1COC(c2c(F)cccc2F)=N1` (centres unmarked) [Etoxazole] reads -1.186%; that for `COC(=O)c1ccccc1C(=O)OC` [Dimethyl phthalate], 1.872%; that for `S=C([S-])NCCNC(=S)[S-].[Mn+2]` [Maneb], 6.097%.
The same measure, in the same setting: the result for `CCCCC(CC)COC(=O)c1ccccc1C(=O)OCC(CC)CCCC` (centres unmarked) [Diethylhexyl phthalate (DEHP)] reads -0.2848%.
For `CCCN(CC)CC1COC2(CCC(C(C)(C)C)CC2)O1` (centres unmarked) [Spiroxamine], the “% Dead cells (vehicle subtracted)” value (mouse, 24 h, 10 µM) is 7.8727%.
The same measure, in the same setting: the figure for `CCSC(=O)N(CC)C1CCCCC1` [Cycloate] is 2.452%.
Take `CC(Oc1ccc(Cl)cc1Cl)C(=O)O` (centres unmarked): the “% Dead cells (vehicle subtracted)” value is on record as -0.3394%.
On the same count and under the same terms, the result for `CC1=C(C(=O)Nc2ccccc2)SCCO1` reads 3.189%.
Still for that read-out and setting: the figure for `CC1=NNC(=O)N(/N=C/c2cccnc2)C1` is -2.3223%; for Mancozeb it is 1.017%; for `Cc1nc(N(C)C)nc(OC(=O)N(C)C)c1C` [Pirimicarb] it is -1.736%.
As to `Cc1cc(C)nc(NC(=O)NS(=O)(=O)c2ccccc2C(=O)OC2COC2)n1` [Oxasulfuron (benzoic acid)], the “% Dead cells (vehicle subtracted)” value was -0.4775%.
Still for that read-out and setting: the result for `CCNC(=O)NC(=O)/C(C#N)=N/OC` [Cymoxanil] reads 3.586%.
`COCC(C)N(C(=O)CCl)c1c(C)csc1C` (centres unmarked) [Dimethenamid]: where the note is “mouse, 24 h, 10 µM”, the “% Dead cells (vehicle subtracted)” value is reported as -0.353%.
Take `COC(=O)c1ccc(I)cc1S(=O)(=O)[N-]C(=O)Nc1nc(C)nc(OC)n1.[Na+]` [Iodosulfuron-methyl-sodium]: the “% Dead cells (vehicle subtracted)” value is given as -4.352%.
Still for that read-out and setting: the figure for `COP(N)(=O)SC` (centres unmarked) [Methamidophos] is -1.5388%.
